# In patent publication US7524503B2, “Human cytomegalovirus (HCMV) cytotoxic T cell epitopes, polyepitopes compositions comprising same and diagnostic and prophylactic and therapeutic uses therefor” (priority 2001, dated 2009):
# “And” between values parts separate entries of the source, which are not always exact repeats. Equal entries are not always repeated. Where two headings read alike, the source gives them in different places.
# Tests used:
# HLA A2 = target: T1, HLA A2 (Homo sapiens, UniProt P04439, D140Y/D185E/D98H/E176V/E277Q/G131W/G231S/I119V/I121R/I166T/I218V/L300P/L318F/N151K/N90K/P208A/P217A/Q86G/Q94H/R138H/R169H/T345S); assay type: cell-based; conditions: HLA A2 on T2 cells; relative increase in HLA expression vs no peptide at 26° C.
# T1 construct: endogenous in cells; host or cells: T2 cells
# [1] = system: peptide-sensitized autologous PHA blasts or LCLs; assay type: cell-based, human; parameters: key to CTL response: Y: Yes; ND: Not detected
# [2] = system: PBMC from healthy HCMV seropositive donors; assay: IFN-γ ELISPOT assay; assay type: cell-based, human; conditions: for ELISPOT Responses (SFC/10^6 PBMC): peptide 10 μg/ml
# How it was run: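 IFN-γ-secreting T cells were counted as spots, with no-peptide control wells subtracted and means taken from triplicate wells. These spots came from healthy seropositive carriers' PBMC, 2.5×10^5 per well.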
# CD4+ T cells = assay: CD4+/CD8+ analysis of 20-mer peptides (intracellular IFN-γ staining or depletion ELISPOT); assay type: cell-based, human
# Procedure: (§1) To determine whether a particular 20-mer peptide contained either a CD4^+- or CD8^+-restricted epitope, or both, CD4^+/CD8^+ cell depletion ELISPOT assays were performed on PBMC from healthy virus carriers. For any one experiment, three populations of cells were used: a) CD8^+-depleted PBMC, b) CD4^+-depleted PBMC, and c) non-depleted PBMC. These populations of cells were tested concurrently with the same peptides in a conventional ELISPOT assay as described herein above. DYNABEADS M-450 (Dynal, Oslo, Norway) that bound specifically to CD4^+- or CD8^+ cells were used to perform the depletion essentially according to manufacturers instructions. Beads were washed twice in cold PBS supplemented with 2% FCS using magnetic isolation. The requisite number of cells was resuspended in cold PBS supplemented with 2% FCS, added to the beads and then incubated at 4° C., in the dark, for 30 mins (CD8^+ beads) or 60 mins (CD4^+ beads). Populations were depleted of CD4^+ or CD8^+ cells using magnetic separation. After depletion, the non-attached cells were removed and washed once in growth medium, counted and used in conventional ELISPOT assay. Depleted cells were used at 1.7×10^5 cells per well and the non-depleted population was used at the standard 2.5×10^5 cells per well. After the depletion step, each respective cell population was assessed for the purity of CD4^+ and CD8^+ T cells by three-colour flow cytometry. Samples of depleted cell populations were stained with anti-CD3 antibody directly conjugated to fluorescein isothiocyanate (FITC), anti-CD4 antibody conjugated with phycoerythrin (PE) fluorochrome, and anti-CD8 antibody conjugated with Tricolor fluorochrome (described below). The percent of CD3^+/CD4^+ cells present within the CD8^+-depleted population and the percent of CD3^+/CD8^+ cells present within the CD4^+-depleted populations were assessed on FACSCalibur cytometer (Becton Dickinson). The purity of each population was greater than 90% and the results from the ELISPOT assays are expressed as the percentage of CD4+ or CD8^+ cells within the depleted populations that responded toward each peptide by producing IFN-γ.
# (§2) PBMCs were incubated at 37° C. in RPMI+10% FCS with and without 10 μg/ml peptides for 6 hours. Golgiplug™ (Pharmingen, San Diego, Calif., USA) was added to the samples according to manufacturer's instructions during the second hour of incubation and cells activated with 25 ng/ml phorbol 12-myristidate 13-acetate (PMA; Sigma-Aldrich Co, St. Louis Mo.) and 1 μg/ml iomomycin (Sigma) acted as a positive control. Following the incubation, 1×10^6 cells/sample were washed and resuspended in staining buffer consisting of PBS with GolgiPlug™, 3% FCS and sodium azide. Cells were then stained with FITC conjugated anti-CD3-FITC (UCHT1, Immunotech, Marseille, France), and either Tricolor (TRI) conjugated anti-CD4 (S3.5, Caltag, Burlingame, Calif.) or anti-CD8 (3B5, Caltag) for 30 minutes, 4° C. in the dark. The cells were fixed for 20 min at 4° C. with Cytofix/Cytoperm™ (BD Biosciences) and resuspended in Perm/Wash™ permeabilization buffer (BD Biosciences) according to manufacturers protocol. Fixed cells were stained with phycoerythrin (PE) conjugated anti-human IFN-γ (B27, Pharmingen) for 30 min at 4° C. in the dark. As a negative control, cells were stained with appropriate isotype matched control antibodies. Cells were washed twice in permeabilization buffer and resuspended in staining buffer before analysis by three-colour flow cytometry on a FACSCalibur cytometer (BD Biosciences). All data analysis was carried out using FlowJo software (Tree Star, Inc. San Carlos, CA).
# (§3) When using 20-mer peptides to map epitopes by ELISPOT, it is possible that some responses may be MHC class-II restricted, and not necessarily restricted through HLA class I alleles. It was evident throughout this study that some epitopes identified using ELISPOT could not be confirmed using cytotoxicity analysis. […]
# CD8+ T cells = assay: as above; assay type: cell-based, human
# Procedure: as §1, §2, §3
# [3] = overlapping 20mer peptides, Table 4
sequence,measurement,setting,value
GQTEPIAFV (human cytomegalovirus pp150 CTL epitope peptide),MSE (MHC stabilization efficiency),HLA A2,+ (+ = 51-99%)
same,CTL activity of polyclonal CTL line,"[1]; donor seven, effector:target ratio 10:1",lower CTL activity
SMMWMRFFV (human cytomegalovirus US2 CTL epitope peptide),MSE (MHC stabilization efficiency),HLA A2,++ (++ = 100-199%)
same,CTL response,"[1]; predicted epitopes, Table 3",Y
same,ELISPOT Responses (SFC/10^6 PBMC),[2]; donor delta,SE(393) SFC/10^6 PBMC
SICPSQEPMSIYVYALPLKM,Responding cells (% CD4),CD4+ T cells; donor eight,1.18%
same,Responding cells (% CD8),CD8+ T cells; donor eight,1.36%
same,CTL response,[1]; [3],Y
same,ELISPOT Responses (SFC/10^6 PBMC),[2]; donor eight,3178 SFC/10^6 PBMC
PQYSEHPTFTSQYRIQGKLE,Responding cells (% CD4),CD4+ T cells; donor delta,0%
same,Responding cells (% CD4),CD4+ T cells; donor four,0.05%
same,Responding cells (% CD4),CD4+ T cells; donor fourteen,1.69%
same,Responding cells (% CD8),CD8+ T cells; donor delta,0.87%
same,Responding cells (% CD8),CD8+ T cells; donor four,0%
same,Responding cells (% CD8),CD8+ T cells; donor fourteen,0.96%
same,CTL response,[1],Y
same,ELISPOT Responses (SFC/10^6 PBMC),[2]; donor delta,980 SFC/10^6 PBMC
same,ELISPOT Responses (SFC/10^6 PBMC),[2]; donor four,MB(413) SFC/10^6 PBMC
same,ELISPOT Responses (SFC/10^6 PBMC),[2]; donor fourteen,1393 SFC/10^6 PBMC
CSPDEIMAYAQKIFKILDEE,Responding cells (% CD4),CD4+ T cells; donor five,0.53%
same,Responding cells (% CD8),CD8+ T cells; donor five,0.4%
same,CTL response,[1],Y
same,ELISPOT Responses (SFC/10^6 PBMC),[2]; donor five,CS(1532) SFC/10^6 PBMC
YPSAAERKHRHLPVADAVIH,Responding cells (% CD4),CD4+ T cells; donor delta,0%
same,Responding cells (% CD8),CD8+ T cells; donor delta,0.313%
same,CTL response,[1]; [3],Y
same,ELISPOT Responses (SFC/10^6 PBMC),[2]; donor delta,SE(350) SFC/10^6 PBMC
FEQPTETPPEDLDTLSLAIE (human cytomegalovirus IE2 CTL epitope peptide),Responding cells (% CD4),CD4+ T cells; donor fourteen,0.2%
same,Responding cells (% CD8),CD8+ T cells; donor fourteen,0.35%
same,CTL response,[1]; [3],Y
same,ELISPOT Responses (SFC/10^6 PBMC),[2]; donor fourteen,RK(791) SFC/10^6 PBMC
YYTSAFVFPTKDVALRHVVC,Responding cells (% CD4),CD4+ T cells; donor two,0.05%
same,Responding cells (% CD8),CD8+ T cells; donor two,0.04%
same,CTL response,[1]; [3],Y
same,ELISPOT Responses (SFC/10^6 PBMC),[2]; donor eight,JW(858) SFC/10^6 PBMC
same,ELISPOT Responses (SFC/10^6 PBMC),[2]; donor seven,775 SFC/10^6 PBMC
same,ELISPOT Responses (SFC/10^6 PBMC),[2]; donor two,358 SFC/10^6 PBMC
SQYRIQGKLEYRHTWDRHDE,Responding cells (% CD4),CD4+ T cells; donor delta,0%
same,Responding cells (% CD8),CD8+ T cells; donor delta,2.0%
same,CTL response,[1]; [3],Y
same,ELISPOT Responses (SFC/10^6 PBMC),[2]; donor delta,SE(1203) SFC/10^6 PBMC
IQIIYTRNHEVKSEVDAVRC,Responding cells (% CD4),CD4+ T cells; donor delta,0%
same,Responding cells (% CD8),CD8+ T cells; donor delta,0.19%
same,CTL response,[1]; [3],Y
same,ELISPOT Responses (SFC/10^6 PBMC),[2]; donor delta,203 SFC/10^6 PBMC
same,ELISPOT Responses (SFC/10^6 PBMC),[2]; donor seven,288 SFC/10^6 PBMC
QAIRETVELRQYDPVAALFF,Responding cells (% CD4),CD4+ T cells; donor two,0.28%
same,Responding cells (% CD8),CD8+ T cells; donor two,0.33%
same,CTL response,[1]; [3],Y
same,ELISPOT Responses (SFC/10^6 PBMC),[2]; donor alpha,102 SFC/10^6 PBMC
same,ELISPOT Responses (SFC/10^6 PBMC),[2]; donor seven,241 SFC/10^6 PBMC
same,ELISPOT Responses (SFC/10^6 PBMC),[2]; donor two,JD(2593) SFC/10^6 PBMC
NLVPMVATV [reference compound],CTL response,"[1]; predicted epitopes, Table 3",Y
same,donors recognizing the epitope in ELISPOT,[2]; cohort of eight HLA A2-positive healthy seropositive donors,recognized by every donor tested
same,ELISPOT Responses (SFC/10^6 PBMC),[2]; donor delta,170 SFC/10^6 PBMC
same,ELISPOT Responses (SFC/10^6 PBMC),[2]; donor fifteen,356 SFC/10^6 PBMC and 671 SFC/10^6 PBMC
same,ELISPOT Responses (SFC/10^6 PBMC),[2]; donor one,1201 SFC/10^6 PBMC
same,ELISPOT Responses (SFC/10^6 PBMC),[2]; donor seven,1202 SFC/10^6 PBMC
same,ELISPOT Responses (SFC/10^6 PBMC),[2]; donor seventeen,271 SFC/10^6 PBMC
same,ELISPOT Responses (SFC/10^6 PBMC),[2]; donor six,1195 SFC/10^6 PBMC
same,ELISPOT Responses (SFC/10^6 PBMC),[2]; donor thirteen,161 SFC/10^6 PBMC
